Test results as given in US20050171185A1, “Indole derivatives” (Fujisawa Pharmaceutical Co., Ltd., a Japanese corporation, priority 1998, published 2005).

Tested on: db/db mice
Experiment: Test for activity of decreasing plasma glucose using db/db mice
Type: in vivo
Details: female db/db mice, test compound mixed in powdered chow (0.01%) for 14 days, dose 3.2 mg/kg; difference between db/db and +/+ mouse groups defined as 100%
Source text: Test Example: Test for Activity of Decreasing Plasma Glucose Using db/db Mice
3-(1-bromonaphthalen-2-ylmethyl)-5-((5-chloro-2-thiophenylsulfonyl)carbamoyl)-2-methylindole (Compound (23))
Five-week-old female mice [C57BL/KsJ-dbm db+/db+, C57BL/KsJ-dbm +m/+m (Jackson Laboratory)] were purchased, and were kept for 2 to 3 weeks. Then, these mice were used in the test.
A test compound was mixed with a powdered chow (CE-2, made by Nippon Clea) using a mortar. The mixing ratio was 0.01%. The mixed chow was changed twice a week for each group. The feed amount and the remaining amount were recorded, and the intake was calculated from the difference therebetween.
The female db/db mice were grouped according to the body weight, the plasma glucose, and the plasma triglyceride concentrations. […] Plasma glucose, triglyceride, and insulin concentrations were measured on day 0 and day 14 as well as plasma glucose and triglyceride concentrations on day 7. The body weight was measured on day 0, day 7, and day 14. […]
The plasma glucose was measured by a glucose oxidase method (Glucose CII-Test Wako made by Wako Pure Chemical Industries, Ltd.) using from 10 to 15 μl of plasma. The plasma triglyceride concentration was measured by a GPO-p-chlorophenol method (Triglyceride G-Test Wako made by Wako Pure Chemical Industries, Ltd.) or a GPO-DAOS method (Triglyceride E-Test Wako) using from 10 to 15 μl of plasma. […]

Cc1[nH]c2ccc(C(=O)NS(=O)(=O)c3ccc(Cl)s3)cc2c1Cc1ccc2ccccc2c1Br [Compound (23), 3-((1-bromonaphthalen-2-yl)methyl)-5-((5-chloro-2-thiophenesulfonyl)carbamoyl)-2-methylindole]
TG concentration-decreasing activity (rate of decrease in plasma triglyceride): 9%
plasma glucose decreasing activity (rate of decrease in plasma glucose): 19%
